Experimental findings from patent US8258295B2, “Triazine derivatives, compositions containing such derivatives, and methods of treatment of cancer and autoimmune diseases using such derivatives” (Prometic Biosciences Inc., priority 2007, dated 2012) are described below.

Series [1] deals with xenograft human prostate PC-3 tumor. Briefly: Xenograft human prostate PC-3 tumor in nude mice. Type of series: in vivo, mouse. The following applies: FIG. 10A; CD1 nu/nu mice; compound IV 5 mg/kg. As for the experimental part:
PC-3 cells were grown in RPMI-1640 containing 10% fetal bovine serum. […] The animals were then serially monitored by manual palpation for evidence of tumor. […] Serial tumor volume was obtained by bi-dimensional diameter measurements with calipers, using the formula 0.4 (a×b^2) where “a” was the major tumor diameter and “b” the minor perpendicular diameter.
(In xenograft studies the graft and the host belong to different species.)

The nature of series [2]: PBML cytotoxicity (MTT). Type of series: cell-based, human. The conditions noted are these: human, resting PBML. The source says: (§1) PBML were obtained from the peripheral blood of healthy volunteers. Blood was submitted to gradient centrifugation with Lympholyte-Poly media (Cedarlane, Hornby, Canada). The layer containing the mononuclear leukocytes was collected and the cells washed three times in PBS. Cells were then suspended in RPMI (Gibco, Burlington, Canada) supplemented with 10% FBS (Hyclone, Logan USA). Viability was greater than 99% as determined by trypan blue exclusion.
(§2) PBML were resuspended at 2×10^6 cells/ml. 100 μl of PBML (2×10^5 cells) were incubated in a 96-well microtiter plate for 48 hr in the presence or absence of compound. Cells were quiescent or stimulated with concanavalin A (con A; T-cells) or pokeweed mitogen (PWM; B-cells). After incubation, cells were treated with MTT (cytotoxicity) or pulsed with 1 μCi of [^3H]-thymidine (DNA synthesis), [^3H]-uridine (RNA synthesis), or [^3H]-leucine (protein synthesis) for 6 hr. Plates were harvested on a Tomteck and counted on a Microbeta β-counter.

Series [3] has as its system peripheral blood mononuclear leukocytes (PBML). Briefly: PBML cytotoxicity (MTT). It is filed as cell-based, human. The conditions noted are these: 48 hr.
Source text: as §1, §2

Series [4] shares this test system. Briefly: PBML DNA synthesis ([3H]-thymidine). Type of series: cell-based. The following applies: Homo sapiens, Leukocyte, 48 hr.
Source text: as §1, §2

Series [5] has the same test system. In words: PBML protein synthesis ([3H]-leucine). Type of series: cell-based. The following applies: Homo sapiens, Leukocyte, 48 hr.
Source text: as §1, §2

For series [6], the system named is LPS-induced inflammation in the rat air-pouch model. Briefly: LPS-induced inflammation in rat air-pouch model. The conditions noted are these: IV; for PGE2 production induced by LPS / TNFα production induced by LPS / LTB4 production induced by LPS / MCP-1 production induced by LPS: pouch exudate; for LTB4 production induced by LPS: FIG. 20C; for MCP-1 production induced by LPS: FIG. 20D; for white blood cell count: two hours after LPS induction, FIG. 19. It is filed as in vivo, rats. The source says:
LPS-induced inflammation in the rat air-pouch model is believed to mimic the pathological process occurring in joint diseases such as arthritis. This is because the connective tissues formed along the air pouch are similar to those found in chronic joint diseases. LPS-induced inflammation and chronic joint diseases share other features, including markedly elevated PGE2, neutrophil infiltration, cytokine formation, and tissue damage.
An air cavity was produced at day −6 by subcutaneous injection of 20 ml of sterile air into the intrascapular area of the back of male Lewis rats (175 to 200 g). An additional 10 ml of air was injected into the cavity at day −3 to keep the space open. At day 0, compounds were administered intravenously and one hour later lipopolysaccharide (LPS: 2.5 ml of 2 μg/ml in PBS) was injected into the pouch to produce an inflammatory reaction. […] The pouch fluid was collected. The volume of exudates was measured and the number of leukocytes present in the exudates was determined with a Coulter counter. The differential count was determined by Wright-Giemsa staining. PGE2, LTB4, MCP, and TNFα were determined in the pouch exudates by specific ELISAs.

Series [7] concerns PC-3 cells. In words: In vitro PC-3 cell migration or invasion assay (EGF-induced). It is filed as cell-based, human. The following applies: mitomycin C treated cells, 24 hr. The protocol:
An in vitro migration assay was used to assess cell mobility in two dimensions. PC-3 cells were plated on a 12-well plate and grown to confluence in RPMI+10% FBS. A rubber policeman was used to create a denuded area. Confluent cells were quiesced by mitomycin C treatment (0.5 μM) at the concentration used to prevent the confounding issue of cell proliferation and protein synthesis. These cells were also incubated in the presence or absence of […] growth factor (EGF) and compound for 24 hr, then they were photographed.
The effects of EGF and compound V on PC-3 cell migration or invasion in the in vitro migration assay were determined. EGF promotes the migration or invasion of PC-3 cells treated with mitomycin compared to control (i.e., no added EGF).

Series [8] has as its system TNFα production. In words: LPS-induced TNFα production in J774A.1 cells (ELISA). It is filed as cell-based. The following applies: Mus musculus, J774.A1, 24 hr. The protocol:
Effect of compounds on TNFα production was measured by ELISA using J774A.1 cells stimulated by LPS. J774A.1 cells were cultured in the presence or absence of LPS and compound. Cells were cultured for 24 hr at 37° C. and thereafter the supernatants were collected for the determination of the concentration of TNFα by ELISA as recommended by the manufacturer (BD Biosciences). Data was analyzed in Microsoft Excel software and the concentration of compound which inhibits 50% of TNFα production (IC50) was calculated using Prism software.
For orientation: ELISA stands for enzyme-linked immunosorbent assay.

For series [9], the system named is PGE2 production. Briefly: LPS-induced PGE2 production in J774A.1 cells (ELISA). Type of series: cell-based. The conditions noted are these: Mus musculus, J774.A1, 24 hr, FIG. 11. As for the experimental part: Effect of compounds on PGE2 production was measured by ELISA using J774A.1 cells stimulated by LPS. J774A.1 cells were cultured in the presence or absence of LPS and compound. Cells were cultured for 24 hr at 37° C. and thereafter the supernatants were collected for the determination of the concentration of PGE2 by ELISA as recommended by the manufacturer (GE Healthcare). Data was analyzed in Microsoft Excel software and the concentration of compound which inhibits 50% of PGE2 production (IC50) was calculated using Prism software.

In series [10] the test system is experimental autoimmune encephalomyelitis (EAE). Briefly: PLP-induced experimental autoimmune encephalomyelitis (EAE) in SJL mice. It is filed as in vivo. As for the experimental part: The PLP-induced experimental autoimmune encephalomyelitis (EAE) mouse model serves as a model of multiple sclerosis. On day O, SJL mice were immunized with 75 μg of PLP (139-151) emulsified in Freund's complete adjuvant (200 μl emulsion per mouse s.c. divided among four sites) and with pertussis toxin (200 ng, i.p.). The i.p. injection of pertussis toxin was repeated on day 2. Compound V was administered orally once a day at 25 mg/kg and 50 mg/kg, starting at day 0 and until 30 days post immunization, six times a week. […] Clinical grading of symptoms was carried out according to the following scale: 0=no illness, 1=flaccid tail, 2=moderate paraparesis, 3=severe paraparesis, 4=moribound state, 5=death.

[11] abbreviates: PWM stimulated PBML, read-out: Cytotoxicity PWM.
Where [12] appears, read: con A stimulated PBML, read-out: Cytotoxicity Con A.
Where [13] appears, read: PWM stimulated PBML, read-out: DNA Synthesis PWM.
[14] abbreviates: con A stimulated PBML, read-out: DNA Synthesis Con A.
Setting [15] is: resting PBML, read-out: DNA Synthesis Resting.
[16] abbreviates: PWM stimulated PBML, read-out: Protein Synthesis PWM.
Where [17] appears, read: con A stimulated PBML, read-out: Protein Synthesis Con A.
Setting [18] is: resting PBML, read-out: Protein Synthesis Resting.
Where [19] appears, read: twelve hours after induction, FIG. 21B.
Where [20] appears, read: twelve hours post-LPS induction, FIG. 21A.
The mark [21] stands for this setting: two hours after induction, FIG. 20A.
Setting [22] is: two hours after induction, FIG. 20B.

As for `NCCCCCNc1nc(NCCc2ccc(S(N)(=O)=O)cc2)nc(Nc2cccc(F)c2)n1` [Compound II], the “effect on PC-3 tumor growth” value in [1] is “cytostatic (no growth) effect up to day 42”. In addition, the IC50 at 48 h in series [2] is greater than 10 µM. For the same molecule, the IC50 in series [3] (setting [11]) was greater than 10 µM; in series [3] (setting [12]), greater than 10 µM; in series [4] (setting [13]), 1.7 µM; in series [4] (setting [14]), 2.9 µM; in [4] (setting [15]), greater than 10 µM; in [5] (setting [16]), 5.7 µM. Further, the IC50 is 6.4 µM in series [5] (setting [17]) and greater than 10 µM in series [5] (setting [18]). In addition, the “PGE2 production induced by LPS” value was “weak and insignificant increase” in series [6] (setting [19]); “weak and insignificant inhibition” in [6] (setting [22]). Also, the “TNFα production induced by LPS” value was “no effect” in series [6] (setting [20]) and “increase the concentration of TNFα” in series [6] (setting [21]). In series [6] (two hours after induction), the “LTB4 production induced by LPS” value was “weak inhibition”. Also, in [6] (two hours after induction), the “MCP-1 production induced by LPS” value is “no influence”. The “white blood cell count” value in series [6] is “significant inhibition”.

Turning to `NCCCCCNc1nc(NCCc2ccc(O)cc2)nc(Nc2ccc(F)cc2)n1` [Compound V], the “EGF-induced PC-3 migration or invasion” value in [7] (1 μM to 10 μM) is reported as “inhibition of the EGF-induced PC-3 migration or invasion”. The IC50 is 13 µM in series [8]; 2 µM in [9]; greater than 10 µM in series [3] (setting [11]); greater than 10 µM in series [3] (setting [12]); 6.1 µM in [4] (setting [13]); 8 µM in series [4] (setting [14]). Also, the IC50 in series [4] (setting [15]), in series [5] (setting [16]), in [5] (setting [17]) and in series [5] (setting [18]) was greater than 10 µM each time. In series [2], this molecule returned an IC50 at 48 h greater than 10 µM. Further, the “PGE2 production induced by LPS” value in series [6] (setting [19]) and in series [6] (setting [22]) was “significant inhibition” in each case. In addition, the “TNFα production induced by LPS” value in series [6] (setting [20]) and in series [6] (setting [21]) was “significant inhibition” throughout. In [6] (two hours after induction), the “LTB4 production induced by LPS” value was “weak inhibition”. In series [6] (two hours after induction), the “MCP-1 production induced by LPS” value is listed as “weak inhibition”. Moreover, in series [6], the “white blood cell count” value is given as “significant inhibition”. Further, the “activity on clinical signs of EAE” value in series [10] (oral 50 mg/kg, vs vehicle) is “significant activity”. Besides, the “appearance of clinical signs of EAE” value in series [10] (oral once a day, 25 mg/kg and 50 mg/kg, until 30 days, FIG. 23) was “reduces in a dose dependent manner the appearance of signs of EAE”.

Consider `NCCCCCNc1nc(NCCc2ccc(O)cc2)nc(Nc2cccc(F)c2)n1` [Compound I], for which the “EGF-induced PC-3 migration or invasion” value in series [7] (1 μM to 20 μM) is “inhibition of the EGF-induced PC-3 migration or invasion”. The IC50 is 29 µM in series [8]; greater than 10 µM in series [3] (setting [11]); greater than 10 µM in [3] (setting [12]); 2.8 µM in series [4] (setting [13]); 3.7 µM in [4] (setting [14]); greater than 10 µM in series [4] (setting [15]). Further, the IC50 in series [5] (setting [16]) is 9.9 µM; in series [5] (setting [17]) it was 4.4 µM; in series [5] (setting [18]) it was greater than 10 µM. In addition, the IC50 at 48 h in [2] is greater than 10 µM.
